Measured values as given in publication PMC6888128, “Biosynthesis of Phenylamide Phytoalexins in Pathogen-Infected Barley” (International Journal of Molecular Sciences, 2019).
Like-named read-outs stand apart in the source and are kept apart here.

What was measured:
HvTHT8 = test system: T1, HvTHT8; assay: LC-MS/MS (MRM) of amide product; type: biochemical, Hordeum vulgare; settings: 100 mM Tris-HCl pH 8.0, 35 °C, read-out: HvTHT8 / K m
T1 construct: His-GST-tagged (pCold GST), E. coli BL21, TALON-purified; differs from HvTHT7 only at residue 166 (His/Arg)
Text: LC-MS/MS (MRM) of amide product on HvTHT8

HvTHT7 = test system: T2, HvTHT7; assay: LC-MS/MS (MRM) of amide product; type: biochemical, Hordeum vulgare; settings: 100 mM Tris-HCl pH 8.0, 35 °C, read-out: HvTHT7 / K m
T2 construct: His-GST-tagged (pCold GST), E. coli BL21, TALON-purified; HvTHT7 plasmid made by site-directed mutagenesis of HvTHT8; differs from HvTHT8 only at residue 166 (His/Arg)
Text: LC-MS/MS (MRM) of amide product on HvTHT7

[1] = acyl acceptor, 200 µM cinnamoyl-CoA

Row | Compound | Km (HvTHT8; acyl donor, 1 mM tryptamine) | Km (HvTHT7; acyl donor, 1 mM tryptamine) | Km (HvTHT8; [1]) | Km (HvTHT7; [1])
1 | NCC(=O)c1c[nH]c2ccccc12 [8-Oxotryptamine] | – | – | 54.9 µM | 53.1 µM
2 | NCc1c[nH]c2ccccc12 [IMA, (1H-indol-3-yl)methylamine] | – | – | 33.9 µM | 54.2 µM
3 | NCCc1c[nH]c2ccc(O)cc12 [Serotonin] | – | – | 347 µM | 385 µM
4 | NCCc1c[nH]c2ccccc12 [Tryptamine] | – | – | 60.6 µM | 59.2 µM

Further lines, with some results ahead:

Row | Km (HvTHT8; acyl donor, 1 mM tryptamine) | Km (HvTHT7; acyl donor, 1 mM tryptamine) | Compound | Km (HvTHT8; [1]) | Km (HvTHT7; [1])
5 | 62.1 µM | 64.2 µM | CC(C)(COP(=O)(O)OP(=O)(O)OC[C@H]1O[C@@H](n2cnc3c(N)ncnc32)[C@H](O)[C@@H]1OP(=O)(O)O)[C@@H](O)C(=O)NCCC(=O)NCCSC(=O)/C=C/c1ccccc1 [Cinnamoyl-CoA] | – | –
6 | 35.5 µM | 39.2 µM | CC(C)(COP(=O)(O)OP(=O)(O)OC[C@H]1O[C@@H](n2cnc3c(N)ncnc32)[C@H](O)[C@@H]1OP(=O)(O)O)[C@@H](O)C(=O)NCCC(=O)NCCSC(=O)/C=C/c1ccc(O)cc1 [Coumaroyl-CoA] | – | –
7 | 36.7 µM | 32.6 µM | COc1cc(/C=C/C(=O)SCCNC(=O)CCNC(=O)[C@H](O)C(C)(C)COP(=O)(O)OP(=O)(O)OC[C@H]2O[C@@H](n3cnc4c(N)ncnc43)[C@H](O)[C@@H]2OP(=O)(O)O)ccc1O [Feruloyl-CoA] | – | –
